The subject of this assay is CYPIR (Cyperus iria, rice flatsedge). Briefly: Postemergence foliar-applied mixtures, direct seeded rice, greenhouse. The format is in vivo, Cyperus iria L. From the text:
Seeds or nutlets of the desired test plant species were planted in a soil matrix prepared by mixing a loam or sandy loam soil (e.g., 28.6 percent silt, 18.8 percent clay, and 52.6 percent sand, with a pH of about 5.8 and an organic matter content of about 1.8 percent) and calcareous grit in an 80 to 20 ratio. The soil matrix was contained in plastic pots with a volume of 1 quart and a surface area of 83.6 square centimeters (cm^2). When required to ensure good germination and healthy plants, a fungicide treatment and/or other chemical or physical treatment was applied. The plants were grown for 8-22 days in a greenhouse with an approximate 14 h photoperiod which was maintained at about 29° C. during the day and 26° C. during the night. Nutrients (Peters Excel® 15-5-15 5-Ca 2-Mg and iron chelate) were applied in the irrigation solution as needed and water was added on a regular basis. Supplemental lighting was provided with overhead metal halide 1000-Watt lamps as necessary. The plants were employed for testing when they reached the first through fourth true leaf stage.
Treatments consisted of the acid or esters of 4-amino-3-chloro-5-fluoro-6-(4-chloro-2-fluoro-3-methoxy-phenyl) pyridine-2-carboxylic acid (Compound A), each formulated as an SC (suspension concentrate), and various herbicidal components alone and in combination. Forms of compound A were applied on an acid equivalent basis.
Other herbicidal components were applied on an active ingredient basis and included Photosystem II (PSII)-inhibiting herbicides propanil formulated as Stam® M4 EC, bentazon-sodium formulated as Basagran®, atrazine formulated as Atrazine 90 WDG, bromoxynil octanoate ester formulated as Buctril®, simetryne (technical grade material), simazine formulated as Princep® Caliber 90, ioxynil (technical grade material), cyanazine (technical grade material), and hexazinone (technical grade material).
Treatment requirements were calculated based upon the rates being tested, the concentration of active ingredient or acid equivalent in the formulation, and a 12 mL application volume at a rate of 187 L/ha.
For treatments comprised of formulated compounds, measured amounts of compounds were placed individually in 25 mL glass vials and diluted in a volume of 1.25% (v/v) Agri-Dex® crop oil concentrated to obtain 12× stock solutions. […] Application solutions were prepared by adding an appropriate amount of each stock solution (e.g., 1 mL) and diluted to the appropriate final concentrations with the addition of 10 mL of an aqueous mixture of 1.25% (v/v) crop oil concentrate so that the final spray solutions contained 1.25+/−0.05% (v/v) crop oil concentrate.
For treatments comprised of technical compounds, weighed amounts can be placed individually in 25 mL glass vials and dissolved in a volume of 97:3 v/v acetone/DMSO to obtain 12× stock solutions. […] Application solutions can be prepared by adding an appropriate amount of each stock solution (e.g., 1 mL) and diluted to the appropriate final concentrations with the addition of 10 mL of an aqueous mixture of 1.5% (v/v) crop oil concentrate so that the final spray solutions contain 1.25% (v/v) crop oil concentrate. When technical materials are used, the concentrated stock solutions can be added to the spray solutions so that the final acetone and DMSO concentrations of the application solutions are 16.2% and 0.5%, respectively.
For treatments comprised of formulated and technical compounds, weighed amounts of the technical materials were placed individually in 25 mL glass vials and dissolved in a volume of 97:3 v/v acetone/DMSO to obtain 12× stock solutions, and measured amounts of the formulated compounds were placed individually in 25 mL glass vials and diluted in a volume of 1.5% (v/v) crop oil concentrate or water to obtain 12× stock solutions. […]

For `CCNc1nc(Cl)nc(NC(C)C)n1` [Atrazine, 6-chloro-N-ethyl-N′-(1-methylethyl)-1,3,5-triazine-2,4-diamine, reference compound], the “Visual Weed Control (%) Obs” value is 0% (280 g ai/ha, 22 DAA); 100% (560 g ai/ha, 22 DAA); 80% (1120 g ai/ha, 22 DAA).

Turning to `COc1c(Cl)ccc(-c2nc(C(=O)O)c(Cl)c(N)c2F)c1F` [Compound A Acid, 4-amino-3-chloro-6-(4-chloro-2-fluoro-3-methoxyphenyl)-5-fluoropyridine-2-carboxylic acid], under “4.38 g ae/ha, 22 DAA”, the “Visual Weed Control (%) Obs” value came out at 15%.

In the case of `COc1c(Cl)ccc(-c2nc(C(=O)OCc3ccccc3)c(Cl)c(N)c2F)c1F` [Compound A Benzyl Ester, benzyl ester of 4-amino-3-chloro-5-fluoro-6-(4-chloro-2-fluoro-3-methoxy-phenyl)pyridine-2-carboxylic acid], the “Visual Weed Control (%) Obs” value was 70% (8 g ae/ha, 20 DAA); 10% (8 g ae/ha, 22 DAA); 90% (16 g ae/ha, 20 DAA); 60% (16 g ae/ha, 22 DAA); 90% (32 g ae/ha, 20 DAA).

For `CCNc1nc(Cl)nc(NCC)n1` [Simazine, 6-chloro-N,N′-diethyl-1,3,5-triazine-2,4-diamine, reference compound], the “Visual Weed Control (%) Obs” value (560 g ai/ha, 20 DAA) worked out at 0%; the “Visual Weed Control (%) Obs” value (1120 g ai/ha, 20 DAA) was found to be 0%; the “Visual Weed Control (%) Obs” value (2240 g ai/ha, 20 DAA) came to 30%.
